Values of other authors as cited in paper PMC10817174, “Integrated drug response prediction models pinpoint repurposed drugs with effectiveness against rhabdomyosarcoma” (PLOS ONE, 2024).

Experiments:
[1] = test system: GDSC-RD cell line; conditions: Table S2, published drug response ref Iorio et al. (2016); cited from earlier work
[2] = test system: GDSC-SJCRH30 cell line; conditions: Table S2, published drug response ref Iorio et al. (2016); cited from earlier work

Structure (SMILES): O=C(NC1CCNCC1)c1[nH]ncc1NC(=O)c1c(Cl)cccc1Cl [AT-7519]
- Iorio_RD [1]: R
- Iorio_SJCRH30 [2]: R

Structure (SMILES): CCNC(=O)c1noc(-c2cc(C(C)C)c(O)cc2O)c1-c1ccc(CN2CCOCC2)cc1 [AUY922]
- Iorio_RD [1]: R
- Iorio_SJCRH30 [2]: R

Structure (SMILES): COc1cc2nccc(Oc3ccc(NC(=O)Nc4cc(C)on4)c(Cl)c3)c2cc1OC [AV-951, tivozanib]
- Iorio_RD [1]: R
- Iorio_SJCRH30 [2]: R

Structure (SMILES): COc1ccc(-c2cc3nccn3c(Nc3ncccc3C(N)=O)n2)cc1OC [BAY-61-3606]
- Iorio_RD [1]: R
- Iorio_SJCRH30 [2]: R

Structure (SMILES): CN(C)Cc1cccc(N/C(=C2\C(=O)Nc3cc(C(=O)N(C)C)ccc32)c2ccccc2)c1 [BIX02189]
- Iorio_RD [1]: R
- Iorio_SJCRH30 [2]: R

Structure (SMILES): Cn1ncnc1[C@H]1c2n[nH]c(=O)c3cc(F)cc(c23)N[C@@H]1c1ccc(F)cc1 [BMN-673]
- Iorio_RD [1]: R
- Iorio_SJCRH30 [2]: S

Structure (SMILES): Cc1ccc2nc(NCCN)c3ncc(C)n3c2c1 [BMS-345541]
- Iorio_RD [1]: R
- Iorio_SJCRH30 [2]: R

Structure (SMILES): C[C@@]1(C(=O)Nc2ccc(F)nc2)CCCN1c1nc(Nc2cc(C3CC3)n[nH]2)c2cccn2n1 [BMS-754807]
- Iorio_RD [1]: S
- Iorio_SJCRH30 [2]: S

Structure (SMILES): O=C(Nc1cccc(Nc2ncc(Br)c(NCCc3cnc[nH]3)n2)c1)N1CCCC1 [BX-912]
- Iorio_RD [1]: R
- Iorio_SJCRH30 [2]: R

Structure (SMILES): C=C(c1ccc(C(=O)O)cc1)c1cc2c(cc1C)C(C)(C)CCC2(C)C [Bexarotene]
- Iorio_RD [1]: R
- Iorio_SJCRH30 [2]: R

Structure (SMILES): CCC/C=C/C=C/C(=O)O[C@H]1/C(=C/C(=O)OC)C[C@H]2C[C@H]([C@@H](C)O)OC(=O)C[C@H](O)C[C@@H]3C[C@H](OC(C)=O)C(C)(C)[C@](O)(C[C@@H]4C/C(=C/C(=O)OC)C[C@H](/C=C/C(C)(C)[C@]1(O)O2)O4)O3 [Bryostatin-1]
- Iorio_RD [1]: R
- Iorio_SJCRH30 [2]: R

Structure (SMILES): CC[C@H](Nc1ncnc2[nH]cnc12)c1nc2cccc(F)c2c(=O)n1-c1ccccc1 [CAL-101]
- Iorio_RD [1]: R
- Iorio_SJCRH30 [2]: R

Structure (SMILES): CC(C)(C)OC(=O)Nc1ccc(-c2cc(C(=O)NCCCCCCC(=O)NO)no2)cc1 [CAY10603]
- Iorio_RD [1]: R
- Iorio_SJCRH30 [2]: R

Structure (SMILES): CCc1cc(-c2n[nH]c(C)c2-c2ccc3c(c2)OCCO3)c(O)cc1O [CCT018159]
- Iorio_RD [1]: R
- Iorio_SJCRH30 [2]: R

Structure (SMILES): COc1cc2ncnc(-n3nc(-c4ccccn4)nc3N)c2cc1OC [CP466722]
- Iorio_RD [1]: R
- Iorio_SJCRH30 [2]: R

Structure (SMILES): COCC(=O)NC/C=C/c1ccc2ncnc(Nc3ccc(Oc4ccc(C)nc4)c(C)c3)c2c1 [CP724714]
- Iorio_RD [1]: R
- Iorio_SJCRH30 [2]: R

Structure (SMILES): C#Cc1cccc(Nc2ncnc3cc(OC)c(OCCCCCCC(=O)NO)cc23)c1 [CUDC-101]
- Iorio_RD [1]: R
- Iorio_SJCRH30 [2]: R

Structure (SMILES): Cc1cnc(CNC(=O)c2c(=O)c3ccc(N4CCCN(C)CC4)nc3n3c2sc2ccccc23)cn1 [CX-5461]
- Iorio_RD [1]: S
- Iorio_SJCRH30 [2]: R

Structure (SMILES): COC(=O)CNC(=O)C(=O)OC [DMOG]
- Iorio_RD [1]: R
- Iorio_SJCRH30 [2]: R

Structure (SMILES): CC(C)(C)c1nc(-c2cccc(NS(=O)(=O)c3c(F)cccc3F)c2F)c(-c2ccnc(N)n2)s1 [Dabrafenib]
- Iorio_RD [1]: R
- Iorio_SJCRH30 [2]: R

Structure (SMILES): COc1cccc2c1C(=O)c1c(O)c3c(c(O)c1C2=O)C[C@@](O)(C(=O)CO)C[C@@H]3O[C@H]1C[C@H](N)[C@H](O)[C@H](C)O1 [Doxorubicin]
- Iorio_RD [1]: R
- Iorio_SJCRH30 [2]: R

Structure (SMILES): O=c1cc(CN2CCOCC2)occ1OCCCCCSc1ccnc2cc(C(F)(F)F)ccc12 [EHT-1864]
- Iorio_RD [1]: R
- Iorio_SJCRH30 [2]: R

Structure (SMILES): CCOc1cc2ncc(C#N)c(Nc3ccc(F)c(Cl)c3)c2cc1NC(=O)/C=C/CN(C)C [EKB-569]
- Iorio_RD [1]: R
- Iorio_SJCRH30 [2]: R

Structure (SMILES): CCCCCCCCCCCC1=C(O)C(=O)C=C(O)C1=O [Embelin]
- Iorio_RD [1]: R
- Iorio_SJCRH30 [2]: R

Structure (SMILES): C/C(=C\c1csc(C)n1)[C@@H]1C[C@@H]2O[C@]2(C)CCC[C@H](C)[C@H](O)[C@@H](C)C(=O)C(C)(C)[C@@H](O)CC(=O)O1 [Epothilone-B]
- Iorio_RD [1]: R
- Iorio_SJCRH30 [2]: R

Structure (SMILES): COc1cc([C@@H]2c3cc4c(cc3[C@@H](O[C@@H]3O[C@@H]5CO[C@@H](C)O[C@H]5[C@H](O)[C@H]3O)[C@H]3COC(=O)[C@H]23)OCO4)cc(OC)c1O [Etoposide]
- Iorio_RD [1]: R
- Iorio_SJCRH30 [2]: R

Structure (SMILES): Cc1cc([N+](=O)[O-])ccc1NS(=O)(=O)c1cc(Cl)ccc1Cl [FH535]
- Iorio_RD [1]: R
- Iorio_SJCRH30 [2]: R

Structure (SMILES): O=C(/C=C/c1cccnc1)NCCCCC1CCN(C(=O)c2ccccc2)CC1 [FK866]
- Iorio_RD [1]: R
- Iorio_SJCRH30 [2]: R

Structure (SMILES): Cc1ccc(-c2c(C(=O)CF)n(CCCO)c3ncnc(N)c23)cc1 [FMK]
- Iorio_RD [1]: R
- Iorio_SJCRH30 [2]: R

Structure (SMILES): Nc1[nH]nc2nnc(-c3c(-c4ccccc4)nn4ccccc34)cc12 [FR-180204]
- Iorio_RD [1]: R
- Iorio_SJCRH30 [2]: R

Structure (SMILES): COC(=O)[C@H](CCSC)NC(=O)c1ccc(NC[C@@H](N)CS)cc1-c1ccccc1 [FTI-277]
- Iorio_RD [1]: R
- Iorio_SJCRH30 [2]: R

Structure (SMILES): CC1=C(C(=O)Nc2cc3cn[nH]c3cc2F)C(c2ccc(C(F)(F)F)cc2)CC(=O)N1 (stereo not shown) [GSK429286A]
- Iorio_RD [1]: R
- Iorio_SJCRH30 [2]: R

Structure (SMILES): CCn1c(-c2nonc2N)nc2c(C#CC(C)(C)O)ncc(OC[C@H]3CCCNC3)c21 [GSK690693]
- Iorio_RD [1]: R
- Iorio_SJCRH30 [2]: S

Structure (SMILES): COc1ncc(-c2ccc3nccc(-c4ccnnc4)c3c2)cc1NS(=O)(=O)c1ccc(F)cc1F [GSK2126458]
- Iorio_RD [1]: R
- Iorio_SJCRH30 [2]: R

Structure (SMILES): O=C(O)c1ccc(-c2c[nH]c3ncc(-c4ccccc4)cc23)cc1C1CCCC1 [GSK-650394]
- Iorio_RD [1]: R
- Iorio_SJCRH30 [2]: R

Structure (SMILES): CCc1cc(Nc2nccc(-c3c(-c4ccc(OC)c(C(=O)Nc5c(F)cccc5F)c4)nc4ccccn34)n2)c(OC)cc1N1CCC(N2CCN(S(C)(=O)=O)CC2)CC1 [GSK-1904529A]
- Iorio_RD [1]: R
- Iorio_SJCRH30 [2]: R

Structure (SMILES): COc1ccc(COc2ccc(Cc3cnc(N)nc3N)cc2OC)cc1 [GW-2580]
- Iorio_RD [1]: R
- Iorio_SJCRH30 [2]: R

Structure (SMILES): Nc1ccn([C@@H]2O[C@H](CO)[C@@H](O)C2(F)F)c(=O)n1 [Gemcitabine]
- Iorio_RD [1]: R
- Iorio_SJCRH30 [2]: R

Structure (SMILES): CCN1CCN(Cc2ccc(NC(=O)c3ccc(C)c(/C=C/c4cnc5[nH]ccc5c4OC)c3)cc2C(F)(F)F)CC1 [HG-6-64-1]
- Iorio_RD [1]: R
- Iorio_SJCRH30 [2]: R

Structure (SMILES): O=C(O)CNC(=O)c1c(O)c2ccccc2n(Cc2ccccc2)c1=O [IOX2]
- Iorio_RD [1]: R
- Iorio_SJCRH30 [2]: R

Structure (SMILES): Oc1ccc2ccccc2c1SSc1c(O)ccc2ccccc12 [IPA-3]
- Iorio_RD [1]: R
- Iorio_SJCRH30 [2]: R

Structure (SMILES): c1ccc2c(CCNc3ccc(Nc4ccncc4)cc3)c[nH]c2c1 [JNJ-26854165]
- Iorio_RD [1]: R
- Iorio_SJCRH30 [2]: R

Structure (SMILES): COc1cc(OC)cc(-c2ccc3ncc4ccc(=O)n(-c5ccc(N6CCNCC6)c(C(F)(F)F)c5)c4c3c2)c1 [JW-7-24-1]
- Iorio_RD [1]: R
- Iorio_SJCRH30 [2]: R

Structure (SMILES): O=C(NC(COc1ccc2[nH]c(=O)[nH]c2c1)c1ccccc1)c1cccn(Cc2ccc(F)c(F)c2)c1=O (stereo not shown) [KIN001-244]
- Iorio_RD [1]: R
- Iorio_SJCRH30 [2]: R

Structure (SMILES): CCN1CCC(n2cc(CNc3cc(Cl)c4ncc(C#N)c(Nc5ccc(F)c(Cl)c5)c4c3)nn2)CC1 [KIN001-266]
- Iorio_RD [1]: R
- Iorio_SJCRH30 [2]: R

Structure (SMILES): O=C(/C=C/c1ccc(CN(CCO)CCc2c[nH]c3ccccc23)cc1)NO [LAQ824]
- Iorio_RD [1]: R
- Iorio_SJCRH30 [2]: R

Structure (SMILES): C/C(O)=C(\C#N)C(=O)Nc1cc(Br)ccc1Br [LFM-A13]
- Iorio_RD [1]: R
- Iorio_SJCRH30 [2]: R

Structure (SMILES): Cn1cc(C2=C(c3cn(C4CCN(Cc5ccccn5)CC4)c4ccccc34)C(=O)NC2=O)c2ccccc21 [LY317615]
- Iorio_RD [1]: R
- Iorio_SJCRH30 [2]: R

Structure (SMILES): NS(=O)(=O)OC[C@@H]1C[C@@H](n2ccc3c(N[C@H]4CCc5ccccc54)ncnc32)C[C@@H]1O [MLN4924]
- Iorio_RD [1]: R
- Iorio_SJCRH30 [2]: R

Structure (SMILES): S=C(NCc1ccc2c(c1)OCO2)N1CCN(c2ncnc3c2oc2ccccc23)CC1 [MP470]
- Iorio_RD [1]: R
- Iorio_SJCRH30 [2]: R

Structure (SMILES): COc1cc(N2CCC(O)CC2)ccc1Nc1cc(Nc2ccccc2S(=O)(=O)C(C)C)c2cc[nH]c2n1 [MPS-1-IN-1]
- Iorio_RD [1]: R
- Iorio_SJCRH30 [2]: R

Structure (SMILES): Cc1ccc(NC(=O)c2ccc(CN3CCN(C)CC3)cc2)cc1Nc1nc(-c2cccnc2)cs1 [Masitinib]
- Iorio_RD [1]: R
- Iorio_SJCRH30 [2]: R

Structure (SMILES): CO[C@@H]1[C@H](N(C)C(=O)c2ccccc2)C[C@H]2O[C@]1(C)n1c3ccccc3c3c4c(c5c6ccccc6n2c5c31)C(=O)NC4 [Midostaurin]
- Iorio_RD [1]: R
- Iorio_SJCRH30 [2]: R

Structure (SMILES): CO[C@@]12[C@H](COC(N)=O)C3=C(C(=O)C(C)=C(N)C3=O)N1C[C@@H]1N[C@@H]12 [Mitomycin-C]
- Iorio_RD [1]: R
- Iorio_SJCRH30 [2]: R

Structure (SMILES): CCN1CCN(Cc2ccc(NC(=O)c3ccc(C)c(Oc4ccnc5[nH]ccc45)c3)cc2C(F)(F)F)CC1 [NG-25]
- Iorio_RD [1]: R
- Iorio_SJCRH30 [2]: R

Structure (SMILES): O=S(=O)(O)c1ccc2cc(N=Nc3cc(S(=O)(=O)O)c4cccnc4c3O)ccc2c1 [NSC-87877]
- Iorio_RD [1]: R
- Iorio_SJCRH30 [2]: R

Structure (SMILES): Cc1ccc(C(=O)Nc2cccc(C(F)(F)F)c2)cc1Nc1nc(-c2cccnc2)nc2c1cnn2C [NVP-BHG712]
- Iorio_RD [1]: R
- Iorio_SJCRH30 [2]: R

Structure (SMILES): COc1cccc2cc(-c3nc([C@H]4CC[C@H](C(=O)O)CC4)n4ncnc(N)c34)[nH]c12 [OSI-027]
- Iorio_RD [1]: R
- Iorio_SJCRH30 [2]: R

Structure (SMILES): C[C@]1(O)C[C@@H](c2nc(-c3ccc4ccc(-c5ccccc5)nc4c3)c3c(N)nccn32)C1 [OSI-906]
- Iorio_RD [1]: S
- Iorio_SJCRH30 [2]: S

Structure (SMILES): O=C(Nc1ccc(OC(F)(F)F)cc1)c1sccc1NCc1ccnc2ccccc12 [OSI-930]
- Iorio_RD [1]: R
- Iorio_SJCRH30 [2]: R

Structure (SMILES): NCC(=O)Nc1ccc(-n2nc(C(F)(F)F)cc2-c2ccc3c(ccc4ccccc43)c2)cc1 [OSU-03012]
- Iorio_RD [1]: R
- Iorio_SJCRH30 [2]: R

Structure (SMILES): COC1=CC(c2cc3ccccc3[nH]2)=N/C1=C\c1[nH]c(C)cc1C [Obatoclax-Mesylate]
- Iorio_RD [1]: R
- Iorio_SJCRH30 [2]: R
